Molecules are shown by their SMILES.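 Tested at 5 concentrations; 48 h exposure; 96-well plates; endpoints linearly interpolated, else capped at highest concentration. GI50 is the concentration that inhibits growth by half. TGI is the concentration that stops growth completely.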

Some test systems named below: ACHN renal; KM12 colon; OVCAR-4 ovarian; RXF 393 renal; SK-MEL-28 melanoma; SN12C renal; SNB-19 CNS; SNB-75 CNS; UO-31 renal; T-47D breast.
Assay in all cases: NCI anticancer screen, dose series, 48 h

In the case of `CN(C)c1n/c(=N/c2ncn[nH]2)ss1`, the TGI with ACHN renal, in the assay on KM12 colon, with OVCAR-4 ovarian, with RXF 393 renal, in the assay with SK-MEL-28 melanoma and in the assay on SN12C renal was greater than 100 µM in each case. Besides, the TGI in the assay with SNB-19 CNS, with SNB-75 CNS and in the assay with UO-31 renal was greater than 100 µM throughout.
For the compound `Nc1nnc(Cn2c(-c3ccccc3)nc3ccc(Br)cc3c2=O)s1`, the GI50 is 39 µM with ACHN renal; 25.1 µM with KM12 colon; greater than 100 µM in the assay with OVCAR-4 ovarian; greater than 100 µM in the assay on SK-MEL-28 melanoma; 18.1 µM in the assay on SN12C renal; greater than 100 µM with SNB-19 CNS. For the same compound, the GI50 in the assay on SNB-75 CNS, in the assay with T-47D breast and with UO-31 renal was greater than 100 µM in each case. The TGI is greater than 100 µM with ACHN renal; greater than 100 µM with KM12 colon; greater than 100 µM in the assay on OVCAR-4 ovarian; greater than 100 µM with SK-MEL-28 melanoma; 77.6 µM in the assay with SN12C renal; greater than 100 µM in the assay with SNB-19 CNS. Moreover, the TGI in the assay on SNB-75 CNS, in the assay on T-47D breast and in the assay with UO-31 renal was greater than 100 µM each time.
In the case of `COc1ccc(C(=O)c2cc3c(N)c(C(=O)Nc4cccc(Cl)c4C)sc3nc2C)cc1`, the GI50 in the assay with ACHN renal was 0.202 µM; with KM12 colon, 0.106 µM; in the assay with OVCAR-4 ovarian, 0.851 µM; in the assay on SK-MEL-28 melanoma, greater than 25 µM; with SN12C renal it was 0.155 µM; with SNB-19 CNS, 0.117 µM. Further, the figures for the GI50 with T-47D breast and in the assay on UO-31 renal were 0.153 µM and 0.634 µM, respectively. For the same compound, the TGI with ACHN renal, in the assay on KM12 colon, in the assay on OVCAR-4 ovarian, in the assay on SK-MEL-28 melanoma, with SN12C renal and with SNB-19 CNS was greater than 25 µM throughout. Further, the TGI in the assay on T-47D breast and in the assay on UO-31 renal was greater than 25 µM throughout.
As for `Cn1c2c(c3ccccc31)CCN(CCCCN1CCN(c3cccc(Cl)c3)CC1)C2=O`, the TGI in the assay with ACHN renal was found to be 37.6 µM; with OVCAR-4 ovarian, 32.2 µM; in the assay on SK-MEL-28 melanoma, 20.1 µM; in the assay with SN12C renal, 25.8 µM; in the assay on SNB-19 CNS it was 42.8 µM; in the assay on SNB-75 CNS it was 9.61 µM. Further, the TGI in the assay on UO-31 renal came to 22.4 µM.
Take `c1ccc(COCC2OC3c4ccccc4COC3C2OCc2ccccc2)cc1` (configuration not stated): the TGI in the assay with ACHN renal, in the assay on KM12 colon, with OVCAR-4 ovarian, in the assay on RXF 393 renal, in the assay with SK-MEL-28 melanoma and with SN12C renal was greater than 100 µM throughout. For the same compound, the TGI with SNB-19 CNS, in the assay on SNB-75 CNS and in the assay with UO-31 renal was greater than 100 µM each time.
`O=C1C2c3[nH]c4ccccc4c3[C@@H]3CCCCC3C2C(=O)N1c1ccccc1` (some centres not stated): the TGI in the assay with ACHN renal was 81.9 µM; in the assay on KM12 colon, 39.3 µM; with OVCAR-4 ovarian it was 75 µM; in the assay on RXF 393 renal it was 32.7 µM; with SK-MEL-28 melanoma it was 33 µM; in the assay with SN12C renal, 32.4 µM. In addition, the TGI with SNB-19 CNS was greater than 100 µM; in the assay on SNB-75 CNS, 71.5 µM; in the assay with UO-31 renal, 45 µM.
In the case of `Cc1cc(C)nc(SC2=C(Nc3cccc(Cl)c3C)C(=O)N(Cc3ccccc3)C2=O)n1`, the GI50 in the assay on ACHN renal, with KM12 colon, in the assay on OVCAR-4 ovarian, in the assay on SK-MEL-28 melanoma, with SNB-19 CNS and in the assay on SNB-75 CNS was greater than 160 µM each time. Besides, the GI50 in the assay with T-47D breast and in the assay with UO-31 renal was greater than 160 µM in each case. The TGI with ACHN renal, with KM12 colon, with OVCAR-4 ovarian, in the assay on SK-MEL-28 melanoma, in the assay on SNB-19 CNS and in the assay on SNB-75 CNS was greater than 160 µM each time. Also, the TGI with T-47D breast and with UO-31 renal was greater than 160 µM each time.
For the compound `Cc1cc(C)c(S(=O)(=O)ONC(=O)OC(C)(C)C)c(C)c1`, the TGI with ACHN renal, in the assay on KM12 colon, in the assay on OVCAR-4 ovarian, with RXF 393 renal, with SK-MEL-28 melanoma and in the assay with SN12C renal was greater than 100 µM in each case. The TGI with SNB-19 CNS, in the assay on SNB-75 CNS and with UO-31 renal was greater than 100 µM in each case.
`COC(OC)[C@@H](C)[C@H](O)[C@](C)(O)C1OC(C)(C)OC(C(C)C=C(C)C)C1C` (some centres not stated): the TGI with ACHN renal, in the assay with KM12 colon, with OVCAR-4 ovarian, in the assay on RXF 393 renal, in the assay on SK-MEL-28 melanoma and in the assay on SN12C renal was greater than 100 µM in each case. The TGI in the assay on SNB-19 CNS, with SNB-75 CNS and in the assay on UO-31 renal was greater than 100 µM in each case.
Take `CCOC(=O)NC(=O)c1cn(CCN2CCN(C(=O)CCCCCCCCCCNc3ncnc4nc[nH]c34)CC2)c(=O)[nH]c1=O`: the TGI with ACHN renal, in the assay on KM12 colon, in the assay on OVCAR-4 ovarian, with RXF 393 renal, with SK-MEL-28 melanoma and with SN12C renal was greater than 100 µM in each case. The TGI with SNB-19 CNS, with SNB-75 CNS and with UO-31 renal was greater than 100 µM throughout.
Take `CNCCCNc1nc2ccccc2c2c(=O)c3cc(Cl)ccc3sc12`: the GI50 with ACHN renal is 1.51 µM; with KM12 colon it was 1.48 µM; with SK-MEL-28 melanoma it was 1.82 µM; in the assay on SN12C renal it was 1.54 µM; in the assay on SNB-75 CNS it was 1.31 µM; with UO-31 renal, 1.16 µM. The TGI turned out to be 2.89 µM with ACHN renal; 2.89 µM in the assay on KM12 colon; 3.34 µM in the assay on SK-MEL-28 melanoma; 2.93 µM in the assay on SN12C renal; 2.61 µM in the assay with SNB-75 CNS; 2.42 µM in the assay on UO-31 renal.
Turning to `O=C(NCCCCCCCCNC(=O)c1cccc2ccccc12)c1cccc2ccccc12`, the TGI in the assay with ACHN renal is 60.8 µM; with KM12 colon, greater than 100 µM; in the assay on OVCAR-4 ovarian, 19 µM; in the assay with RXF 393 renal it was 7.74 µM; in the assay with SK-MEL-28 melanoma, greater than 94.4 µM; with SN12C renal it was greater than 100 µM. For the same compound, the TGI with SNB-19 CNS is greater than 59.5 µM; in the assay on SNB-75 CNS, 13.2 µM; in the assay with UO-31 renal, 27.4 µM.

Source of the values: PubChem BioAssay (NCI).
